# Measurements reported in patent US10456379B2, “Imidazole-based antimicrobial agents” (priority 2014, dated 2019).
# How the values were obtained:
# [1] = system: Staphylococcus aureus MRSA (COL); assay: Broth microdilution MIC assay, Staphylococcus aureus MRSA (COL); assay type: cell-based; details: MIC class score, MIC100, broth microdilution, COL strain
# [2] = system: Streptococcus pneumoniae (Chester, ATCC49619); assay: Broth microdilution MIC assay, Streptococcus pneumoniae; assay type: cell-based; details: for MIC: Streptococcus pneumoniae, ATCC49619, read-out: Antibacterial activity, SP (Streptococcus pneumoniae), MIC class; for Antibacterial activity Streptococcus pneumoniae: MIC class score, MIC100, broth microdilution
compound,measurement,setting,value
Cc1nc(-c2ccc(-c3ccc(F)cc3F)o2)[nH]c1-c1ccc(O)cc1 [compound 80],Antibacterial activity Staphylococcus aureus (MRSA),[1],2 (MIC100 of 11-20 μg/ml)
Cc1nc(-c2ccc(-c3ccc(Cl)cc3)o2)[nH]c1-c1ccccc1 [compound 5],MIC,[2],< 1 µg/mL
CCCc1nc(-c2ccc(-c3ccccc3N(C)C)o2)[nH]c1C [compound 98],Antibacterial activity Staphylococcus aureus (MRSA),[1],3 (MIC100 of 3-10 μg/ml)
Cc1cccc(C)c1-c1ccc(-c2nc(C)c(-c3ccccc3)[nH]2)o1 [compound 62],Antibacterial activity Streptococcus pneumoniae,[2],3 (MIC100 of 2-5 μg/ml)
same,MIC,[2],2 to 5 µg/mL
Cc1ccc(-c2nc(-c3nc(-c4ccccc4)c(C)[nH]3)cs2)cc1 [compound 56],MIC,[2],2 to 5 µg/mL
CCCc1nc(-c2ccc(-c3ccc(C(F)(F)F)cc3)o2)[nH]c1C [compound 104],Antibacterial activity Staphylococcus aureus (MRSA),[1],3 (MIC100 of 3-10 μg/ml)
Cc1nc(-c2ccc(-c3ccc4occc4c3)o2)[nH]c1-c1ccccc1 [compound 159],Antibacterial activity Streptococcus pneumoniae,[2],3 (MIC100 of 2-5 μg/ml)
Cc1[nH]c(-c2cc(C)n(-c3cccc(C(F)(F)F)c3)c2C)nc1-c1ccccc1 [compound 36],MIC,[2],2 to 5 µg/mL
same,Antibacterial activity Staphylococcus aureus (MRSA),[1],2 (MIC100 of 11-20 μg/ml)
Cc1ccc(-c2ccc(-c3nc(-c4ccccc4)c(C)[nH]3)o2)cc1 [compound 52],MIC,[2],6 to 10 µg/mL
Cc1[nH]c(-c2ccc(-c3cccc(Cl)c3)s2)nc1-c1ccccc1 [compound 12],MIC,[2],2 to 5 µg/mL
CCc1ccc(-c2ccc(-c3nc(-c4ccccc4)c(C)[nH]3)o2)cc1 [compound 53],Antibacterial activity Streptococcus pneumoniae,[2],3 (MIC100 of 2-5 μg/ml)
same,MIC,[2],2 to 5 µg/mL
Cc1nc(-c2ccc(-c3ccc(O)c(C(F)(F)F)c3)o2)[nH]c1-c1ccccc1 [compound 155],Antibacterial activity Streptococcus pneumoniae,[2],3 (MIC100 of 2-5 μg/ml)
CCCc1[nH]c(-c2ccc(-c3ccc(Cl)cc3Cl)o2)nc1C [compound 109],Antibacterial activity Staphylococcus aureus (MRSA),[1],2 (MIC100 of 11-20 μg/ml)
CCCc1nc(-c2ccc(-c3ccccc3C)o2)[nH]c1C [compound 100],Antibacterial activity Staphylococcus aureus (MRSA),[1],2 (MIC100 of 11-20 μg/ml)
Cc1[nH]c(-c2cnn(-c3ccccc3)n2)nc1-c1ccccc1 [compound 73],Antibacterial activity Streptococcus pneumoniae,[2],2 (MIC100 of 6-10 μg/ml)
same,MIC,[2],6 to 10 µg/mL
Cc1[nH]c(-c2cc(C)n(-c3ccc(Cl)cc3)c2C)nc1-c1ccccc1 [compound 8],Antibacterial activity Streptococcus pneumoniae,[2],3 (MIC100 of 2-5 μg/ml)
same,MIC,[2],2 to 5 µg/mL
Cc1nc(-c2ccc(-c3ccc4cc[nH]c4c3)o2)[nH]c1-c1ccccc1 [compound 152],Antibacterial activity Streptococcus pneumoniae,[2],3 (MIC100 of 2-5 μg/ml)
Cc1nc(-c2ccc(-c3ccc(O)cc3C(F)(F)F)o2)[nH]c1-c1ccccc1 [compound 139],Antibacterial activity Streptococcus pneumoniae,[2],3 (MIC100 of 2-5 μg/ml)
Fc1ccc(-c2ccc(-c3nc4ccccc4[nH]3)o2)c(F)c1 [compound 122],Antibacterial activity Streptococcus pneumoniae,[2],in- active
same,Antibacterial activity Staphylococcus aureus (MRSA),[1],in- active
FC(F)(F)Oc1ccccc1-c1ccc(-c2ncc(-c3ccccc3)[nH]2)o1 [compound 63],Antibacterial activity Streptococcus pneumoniae,[2],3 (MIC100 of 2-5 μg/ml)
same,MIC,[2],2 to 5 µg/mL
Cc1nc(-c2ccc(-c3ccc(F)c(F)c3)o2)[nH]c1-c1ccccc1 [compound 153],Antibacterial activity Streptococcus pneumoniae,[2],3 (MIC100 of 2-5 μg/ml)
Cc1[nH]c(-c2ccc(-c3ccccc3F)o2)nc1-c1ccccc1 [compound 162],Antibacterial activity Streptococcus pneumoniae,[2],3 (MIC100 of 2-5 μg/ml)
CCCc1[nH]c(-c2ccc(-c3ccccc3)o2)nc1C [compound 94],Antibacterial activity Staphylococcus aureus (MRSA),[1],3 (MIC100 of 3-10 μg/ml)
Cc1nc(-c2ccc(-c3ccc(O)cc3Cl)o2)[nH]c1-c1ccccc1 [compound 158],Antibacterial activity Streptococcus pneumoniae,[2],3 (MIC100 of 2-5 μg/ml)
Cc1nc(-c2ccc(-c3ccc4[nH]ccc4c3)o2)[nH]c1-c1ccccc1 [compound 144],Antibacterial activity Streptococcus pneumoniae,[2],3 (MIC100 of 2-5 μg/ml)
Cc1nc(-c2ccc(-c3cccc4cc[nH]c34)o2)[nH]c1-c1ccccc1 [compound 161],Antibacterial activity Streptococcus pneumoniae,[2],3 (MIC100 of 2-5 μg/ml)
Cc1[nH]c(-c2ccc(-c3cccc(Br)c3)s2)nc1-c1ccccc1 [compound 13],MIC,[2],2 to 5 µg/mL
Cc1[nH]c(-c2ccc(-c3ccc(F)cc3)s2)nc1-c1ccccc1 [compound 7],MIC,[2],2 to 5 µg/mL
CCCc1nc(-c2sc(-c3ccccc3C(F)(F)F)c3c2OCCO3)[nH]c1C [Compound 114],Antibacterial activity Staphylococcus aureus (MRSA),[1],3 (MIC100 of 3-10 μg/ml)
Cc1[nH]c(-c2ccc(-c3ccccc3OC(F)(F)F)o2)nc1-c1ccc(C(F)(F)F)cc1 [compound 26],MIC,[2],2 to 5 µg/mL
Cc1[nH]c(-c2coc(-c3ccccc3C(F)(F)F)c2)nc1-c1ccccc1 [compound 72],MIC,[2],6 to 10 µg/mL
Cc1ccccc1-c1ccc(-c2nc(C)c(-c3ccccc3)[nH]2)o1 [compound 61],Antibacterial activity Streptococcus pneumoniae,[2],3 (MIC100 of 2-5 μg/ml)
same,MIC,[2],2 to 5 µg/mL
Cc1nc(-c2ccc(-c3cc(C(F)(F)F)cc(C(F)(F)F)c3)o2)[nH]c1-c1ccccc1 [compound 35],Antibacterial activity Streptococcus pneumoniae,[2],2 (MIC100 of 6-10 μg/ml)
Cc1nc(-c2ccc(/C=C/c3ccccc3)o2)[nH]c1-c1ccccc1 [compound 143],Antibacterial activity Streptococcus pneumoniae,[2],3 (MIC100 of 2-5 μg/ml)
Cc1nc(-c2ccc(-c3ccccc3Cl)o2)[nH]c1C [compound 86],Antibacterial activity Streptococcus pneumoniae,[2],3 (MIC100 of 2-5 μg/ml)
Cc1nc(-c2ccc(-c3cc(C(F)(F)F)ccc3Cl)o2)[nH]c1-c1ccccc1 [compound 40],Antibacterial activity Streptococcus pneumoniae,[2],2 (MIC100 of 6-10 μg/ml)
same,MIC,[2],6 to 10 µg/mL
CCCc1nc(-c2csc(-c3ccccc3C(F)(F)F)c2)[nH]c1C [Compound 113],Antibacterial activity Staphylococcus aureus (MRSA),[1],3 (MIC100 of 3-10 μg/ml)
Cc1ccc(-c2ccc(-c3nc(-c4ccccc4)c(C)[nH]3)s2)cc1 [compound 54],Antibacterial activity Streptococcus pneumoniae,[2],2 (MIC100 of 6-10 μg/ml)
same,MIC,[2],6 to 10 µg/mL
Cc1[nH]c(-c2cc(C)n(-c3ccc(C(C)C)cc3)c2C)nc1-c1ccccc1 [compound 58],MIC,[2],< 1 µg/mL
Cc1[nH]c(-c2csc(-c3cccc(Br)c3)n2)nc1-c1ccccc1 [compound 14],MIC,[2],2 to 5 µg/mL
C#Cc1ccc(-c2[nH]c(-c3ccc(-c4ccccc4C(F)(F)F)o3)nc2C)cc1 [compound 27],MIC,[2],< 1 µg/mL
Cc1ccc(-c2nc(-c3nc(-c4ccccc4)c(C)[nH]3)co2)cc1 [compound 57],Antibacterial activity Streptococcus pneumoniae,[2],3 (MIC100 of 2-5 μg/ml)
same,MIC,[2],2 to 5 µg/mL
Cc1[nH]c(-c2cc(C)n(-c3ccc(F)c(F)c3F)c2C)nc1-c1ccccc1 [compound 10],MIC,[2],2 to 5 µg/mL
Cc1nc(-c2ccc(-c3ccc(O)c(Cl)c3)o2)[nH]c1-c1ccccc1 [compound 157],Antibacterial activity Streptococcus pneumoniae,[2],3 (MIC100 of 2-5 μg/ml)
Cc1[nH]c(-c2csc(-c3ccc(F)cc3)n2)nc1-c1ccccc1 [compound 11],MIC,[2],2 to 5 µg/mL
CCCc1nc(-c2ccc(-c3c(C)cccc3C)o2)[nH]c1C [compound 103],Antibacterial activity Staphylococcus aureus (MRSA),[1],3 (MIC100 of 3-10 μg/ml)
CCCc1[nH]c(-c2ccc(-c3cccc4[nH]ccc34)o2)nc1C [compound 108],Antibacterial activity Staphylococcus aureus (MRSA),[1],2 (MIC100 of 11-20 μg/ml)
Cc1[nH]c(-c2cc(C)n(-c3ccc4c(c3)CCC4)c2C)nc1-c1ccccc1 [compound 59],MIC,[2],2 to 5 µg/mL
Cc1nc(-c2ccc(-c3ccc(O)cc3F)o2)[nH]c1-c1ccccc1 [compound 168],Antibacterial activity Streptococcus pneumoniae,[2],3 (MIC100 of 2-5 μg/ml)
Cc1nc(-c2ccc(-c3cccc(F)c3)o2)[nH]c1-c1ccccc1 [compound 146],Antibacterial activity Streptococcus pneumoniae,[2],3 (MIC100 of 2-5 μg/ml)
Cc1[nH]c(-c2cc(C)n(-c3ccc(F)cc3F)c2C)nc1-c1ccccc1 [compound 9],MIC,[2],2 to 5 µg/mL
Cc1nc(-c2ccc(-c3ccc(F)cc3)o2)[nH]c1-c1ccccc1 [compound 148],Antibacterial activity Streptococcus pneumoniae,[2],3 (MIC100 of 2-5 μg/ml)
Cc1cc(F)ccc1-c1ccc(-c2nc(-c3ccccc3)c(C)[nH]2)o1 [compound 164],Antibacterial activity Streptococcus pneumoniae,[2],3 (MIC100 of 2-5 μg/ml)
Cc1[nH]c(-c2ccc(-c3ccc(C(C)(C)C)cc3)o2)nc1-c1ccccc1 [compound 165],Antibacterial activity Streptococcus pneumoniae,[2],2 (MIC100 of 6-10 μg/ml)
Cc1nc(-c2ccc(-c3ccccc3C(F)(F)F)o2)[nH]c1-c1ccccc1Cl [compound 20],MIC,[2],< 1 µg/mL
Cc1nc(-c2ccc(-c3ccccc3N(C)C)o2)[nH]c1-c1ccccc1 [compound 71],Antibacterial activity Streptococcus pneumoniae,[2],3 (MIC100 of 2-5 μg/ml)
same,MIC,[2],2 to 5 µg/mL
Cc1nc(-c2ccc(-c3cc(F)ccc3C(F)(F)F)o2)[nH]c1-c1ccccc1 [31a],Antibacterial activity Streptococcus pneumoniae,[2],3 (MIC100 of 2-5 μg/ml)
CCCc1[nH]c(-c2ccc(-c3ccccc3Cl)s2)nc1C [compound 82],Antibacterial activity Staphylococcus aureus (MRSA),[1],3 (MIC100 of 3-10 μg/ml)
Cc1[nH]c(-c2ccc(-c3ccccc3C(F)(F)F)o2)nc1-c1ccc(Br)cc1 [compound 25],Antibacterial activity Streptococcus pneumoniae,[2],3 (MIC100 of 2-5 μg/ml)
same,MIC,[2],2 to 5 µg/mL
CCc1ccc(-c2[nH]c(-c3ccc(-c4ccccc4C(F)(F)F)o3)nc2C)cc1 [compound 28],MIC,[2],2 to 5 µg/mL
Cc1[nH]c(-c2ccc(-c3c(F)cccc3F)o2)nc1-c1ccccc1 [compound 163],Antibacterial activity Streptococcus pneumoniae,[2],3 (MIC100 of 2-5 μg/ml)
CCCc1nc(-c2coc(-c3ccccc3C(F)(F)F)c2)[nH]c1C [Compound 112],Antibacterial activity Staphylococcus aureus (MRSA),[1],3 (MIC100 of 3-10 μg/ml)
COc1ccc(-c2ccc(-c3nc(C)c(-c4ccccc4)[nH]3)o2)c(C(F)(F)F)c1 [compound 31],MIC,[2],< 1 µg/mL
Cc1ccc(-c2ncc(-c3nc(-c4ccccc4)c(C)[nH]3)s2)cc1 [compound 55],MIC,[2],2 to 5 µg/mL
CCCc1[nH]c(-c2ccc(-c3ccc(O)cc3C(F)(F)F)o2)nc1C [compound 110],Antibacterial activity Staphylococcus aureus (MRSA),[1],3 (MIC100 of 3-10 μg/ml)
Cc1nc(-c2ccc(-c3cccc4[nH]ccc34)o2)[nH]c1-c1ccccc1 [compound 138],Antibacterial activity Streptococcus pneumoniae,[2],2 (MIC100 of 6-10 μg/ml)
Cc1[nH]c(-c2ccc(-c3ccccc3)s2)nc1-c1ccccc1 [compound 74],MIC,[2],2 to 5 µg/mL
Cc1nc(-c2ccc(-c3ccccc3Br)o2)[nH]c1C [compound 84],Antibacterial activity Streptococcus pneumoniae,[2],2 (MIC100 of 6-10 μg/ml)
